Assay results taken from ChEMBL document CHEMBL1201862, “PubChem BioAssay data set” (2004).
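1) Cells in 96-well plates. 2) Compound, 48 h, 5 concentrations. 3) Linear interpolation between surrounding doses. 4) Unreached endpoint = highest concentration. Abbreviation: GI50, concentration required for 50% inhibition of growth.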 The source made the active and inactive calls. Cut-off read from the data, not from the text of the source: active = GI50 up to about 1.1 µM and inactive = higher.

Assays:
Assay in all cases: NCI anticancer screen, dose series, 48 h
786-0 = system: 786-0
ACHN = system: ACHN
EKVX = system: EKVX
HCT-116 = system: HCT-116
HT-29 = system: HT-29
M14 = system: M14
MCF7 = system: MCF7
MOLT-4 = system: MOLT-4
Malme-3M = system: Malme-3M
NCI-H226 = system: NCI-H226
NCI-H23 = system: NCI-H23
NCI/ADR-RES = system: NCI/ADR-RES
OVCAR-3 = system: OVCAR-3
OVCAR-8 = system: OVCAR-8
RPMI-8226 = system: RPMI-8226
SK-MEL-2 = system: SK-MEL-2
SR = system: SR
UACC-62 = system: UACC-62
NCI-H522 = system: NCI-H522
A498 = system: A498

Measured: GI50

O=C(OCCN=C1c2ccccc2CCc2ccccc21)c1ccccc1
inactive: 786-0 > 100 µM | ACHN > 100 µM | EKVX > 100 µM | HCT-116 > 100 µM | HT-29 > 100 µM | M14 > 100 µM | MCF7 > 100 µM | MOLT-4 15.2 µM | Malme-3M > 100 µM | NCI-H226 53.1 µM | NCI-H23 > 100 µM | NCI/ADR-RES > 100 µM | OVCAR-3 > 100 µM | OVCAR-8 > 100 µM | RPMI-8226 13 µM | SK-MEL-2 > 100 µM | SR 18 µM | UACC-62 > 100 µM

CCOC(=O)C(O)(NC(C)=O)C(F)(F)F (centres undefined)
inactive: ACHN > 100 µM | EKVX > 100 µM | HCT-116 > 100 µM | HT-29 > 100 µM | M14 > 100 µM | MCF7 > 100 µM | MOLT-4 > 100 µM | Malme-3M > 100 µM | NCI-H226 > 100 µM | NCI-H23 > 100 µM | NCI-H522 > 100 µM | NCI/ADR-RES > 100 µM | OVCAR-3 > 100 µM | OVCAR-8 > 100 µM | RPMI-8226 > 100 µM | SK-MEL-2 > 100 µM | SR 7.24 µM | UACC-62 > 100 µM

COc1ccc(-c2c(C(C)=O)c(C)n(C3OC(CO)C(O)C(O)C3O)c(=S)c2C#N)cc1 (centres undefined)
inactive: ACHN 80.2 µM | EKVX 55.1 µM | HCT-116 86.9 µM | HT-29 > 100 µM | M14 60.1 µM | MCF7 > 100 µM | MOLT-4 27.7 µM | Malme-3M 70.5 µM | NCI-H23 68.1 µM | NCI/ADR-RES 93.5 µM | OVCAR-3 > 100 µM | OVCAR-8 58.2 µM | RPMI-8226 83.6 µM | SR 48.8 µM | UACC-62 28 µM

O=C1O[C@H](c2ccc3c(c2)OCO3)[C@H]2CO[C@@H](c3ccc4c(c3)OCO4)[C@@H]12
inactive: 786-0 > 100 µM | ACHN > 100 µM | EKVX > 100 µM | HCT-116 > 100 µM | HT-29 77.6 µM | M14 > 100 µM | MCF7 > 100 µM | MOLT-4 43.5 µM | Malme-3M > 100 µM | NCI-H226 > 100 µM | NCI-H23 78.7 µM | NCI-H522 94.8 µM | NCI/ADR-RES 74.1 µM | OVCAR-8 > 100 µM | RPMI-8226 33.9 µM | SK-MEL-2 > 100 µM | SR 42.7 µM | UACC-62 88.5 µM

CSc1nncc2[nH]c(C)nc12
inactive: 786-0 > 100 µM | A498 > 100 µM | ACHN > 100 µM | EKVX > 100 µM | HCT-116 > 100 µM | HT-29 > 100 µM | M14 > 100 µM | MCF7 > 100 µM | MOLT-4 > 100 µM | Malme-3M > 100 µM | NCI-H226 > 100 µM | NCI-H23 > 100 µM | NCI-H522 > 100 µM | NCI/ADR-RES > 100 µM | OVCAR-3 > 100 µM | OVCAR-8 > 100 µM | RPMI-8226 > 100 µM | SK-MEL-2 > 100 µM | UACC-62 > 100 µM

N=C1NC(c2ccc(Cl)cc2)=CC(c2cccc(Cl)c2)S1 (centres undefined)
inactive: 786-0 36.1 µM | ACHN 24.4 µM | EKVX 25.4 µM | HCT-116 26.4 µM | HT-29 30.8 µM | M14 48.4 µM | MCF7 24.8 µM | MOLT-4 37.4 µM | Malme-3M 38 µM | NCI-H226 26.7 µM | NCI-H23 34.8 µM | NCI-H522 20.1 µM | NCI/ADR-RES 45.4 µM | OVCAR-3 41.7 µM | OVCAR-8 38.6 µM | RPMI-8226 17.3 µM | SK-MEL-2 20.6 µM | SR 28.7 µM | UACC-62 18.8 µM

CC[C@@H]1CC[C@@H]2[C@H](CC[C@]3(C)[C@@H](OC(C)=O)CC[C@@H]23)[C@H]1COC(C)=O
inactive: 786-0 45.1 µM | A498 26 µM | ACHN 53.8 µM | EKVX 31.6 µM | HCT-116 16.5 µM | HT-29 18.2 µM | M14 25.4 µM | MCF7 31.6 µM | MOLT-4 16 µM | Malme-3M 18.4 µM | NCI-H226 23.1 µM | NCI-H23 27.2 µM | NCI-H522 23.1 µM | NCI/ADR-RES 26.7 µM | OVCAR-3 17.4 µM | OVCAR-8 23 µM | RPMI-8226 25.6 µM | SK-MEL-2 16.4 µM | UACC-62 18.1 µM

CCOC(=O)C(Cl)(NC(=O)OCc1ccccc1)C(F)(F)F (centres undefined)
inactive: 786-0 > 100 µM | A498 > 100 µM | ACHN > 100 µM | EKVX > 100 µM | HCT-116 > 100 µM | HT-29 > 100 µM | M14 > 100 µM | MCF7 > 100 µM | MOLT-4 > 100 µM | Malme-3M > 100 µM | NCI-H226 > 100 µM | NCI-H23 > 100 µM | NCI-H522 > 100 µM | NCI/ADR-RES > 100 µM | OVCAR-3 > 100 µM | OVCAR-8 > 100 µM | RPMI-8226 > 100 µM | SK-MEL-2 > 100 µM
